target: T1, human macrophage elastase (HME/hMMP-12) (Homo sapiens, UniProt P39900); test: In vitro HME inhibition test (standard or high-sensitivity); assay type: biochemical; settings: in some cases mean values, rounded to two significant figures
T1 construct: purchased R&D Systems 917-MP
Protocol: The potency of the compounds according to the invention with respect to HME (MMP-12) is determined in an in vitro inhibition test. The HME-mediated amidolytic cleavage of a suitable peptide substrate leads to an increase in fluorescent light therein. The signal intensity of the fluorescent light is directly proportional to the enzyme activity. The active concentration of a test compound at which half the enzyme is inhibited (50% signal intensity of the fluorescent light) is reported as the IC50 value.
In a 384 hole microtiter plate, in a total test volume of 41 μl, the test buffer (0.1 M HEPES pH 7.4, 0.15 M NaCl, 0.03 M CaCl2, 0.004 mM ZnCl2, 0.02 M EDTA, 0.005% Brij®), the enzyme (0.5 nM HME; R&D Systems, 917-MP, autocatalytic activation according to the manufacturer's instructions) and the intramolecularly quenched substrate [5 μM Mca-Pro-Leu-Gly-Leu-Glu-Glu-Ala-Dap(Dnp)-NH2; Bachem, M-2670] are incubated in the absence and presence of the test substance (as a solution in DMSO) at 37° C. for two hours. The fluorescence intensity of the test mixtures is measured (excitation […], emission 393 nm). The IC50 values are ascertained by plotting the fluorescent light intensity against the active ingredient concentration.
In this case, an enzyme concentration ten times lower is used (final concentration, e.g. 0.05 nM) in order to achieve an increased test sensitivity. The incubation period chosen for the test is correspondingly longer (e.g. 16 hours).

T1 sequence (P39900 106-470): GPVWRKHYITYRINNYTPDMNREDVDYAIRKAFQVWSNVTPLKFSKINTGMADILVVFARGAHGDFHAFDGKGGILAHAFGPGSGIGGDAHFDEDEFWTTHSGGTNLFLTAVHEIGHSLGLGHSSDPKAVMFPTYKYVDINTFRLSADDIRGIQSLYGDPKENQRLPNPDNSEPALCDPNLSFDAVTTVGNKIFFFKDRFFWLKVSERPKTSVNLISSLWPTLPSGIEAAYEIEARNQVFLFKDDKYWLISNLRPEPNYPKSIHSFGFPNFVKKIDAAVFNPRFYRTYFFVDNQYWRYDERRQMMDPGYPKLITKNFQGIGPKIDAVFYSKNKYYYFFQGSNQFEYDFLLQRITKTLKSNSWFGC

Point of comparison: `O=C(CC(CCn1nnc2ccccc2c1=O)C(=O)O)c1cc2cc(OCCc3ccccc3)ccc2o1` (racemic) [Example 19, (+/−)-4-Oxo-2-[2-(4-oxo-1,2,3-benzotriazin-3(4H)-yl)ethyl]-4-[5-(2-phenylethoxy)-1-benzofur-2-yl]butanoic acid], IC50 4.7 nM. Against it:
- COc1ccc(CCOc2ccc3oc(C(=O)CC(CCn4nnc5ccccc5c4=O)C(=O)O)cc3c2)cc1 (racemic) [Example 3, (+/−)-4-{5-[2-(4-Methoxyphenyl)ethoxy]-1-benzofur-2-yl}-4-oxo-2-[2-(4-oxo-1,2,3-benzotriazin-3(4H)-yl)ethyl]butanoic acid] — within 1.5-fold, 4.1 nM
- Cc1ccccc1CCOc1ccc2oc(C(=O)CC(CCn3nnc4ccccc4c3=O)C(=O)O)cc2c1 (racemic) [Example 4, (+/−)-4-{5-[2-(2-Methylphenyl)ethoxy]-1-benzofur-2-yl}-4-oxo-2-[2-(4-oxo-1,2,3-benzotriazin-3(4H)-yl)ethyl]butanoic acid] — within 1.5-fold, 4.3 nM
- O=C(CC(CCn1nnc2ccccc2c1=O)C(=O)O)c1cc2cc(OCCCC(F)(F)F)ccc2o1 (racemic) [Example 11, (+/−)-4-Oxo-2-[2-(4-oxo-1,2,3-benzotriazin-3(4H)-yl)ethyl]-4-[5-(4,4,4-trifluorobutoxy)-1-benzofur-2-yl]butanoic acid] — within 1.5-fold, 4.3 nM
- O=C(CC(CCn1nnc2ccccc2c1=O)C(=O)O)c1cc2cc(OCC3(F)CCOCC3)ccc2o1 (racemic) [Example 14, (+/−)-4-{5-[(4-Fluorotetrahydro-2H-pyran-4-yl)methoxy]-1-benzofur-2-yl}-4-oxo-2-[2-(4-oxo-1,2,3-benzotriazin-3(4H)-yl)ethyl]butanoic acid] — 7.2-fold lower, 0.65 nM
- N#CCCCOc1ccc2oc(C(=O)CC(CCn3nnc4ccccc4c3=O)C(=O)O)cc2c1 (racemic) [Example 15, (+/−)-4-[5-(3-Cyanopropoxy)-1-benzofur-2-yl]-4-oxo-2-[2-(4-oxo-1,2,3-benzotriazin-3(4H)-yl)ethyl]butanoic acid] — within 1.5-fold, 4.8 nM
- O=C(CC(CCn1nnc2ccccc2c1=O)C(=O)O)c1cc2cc(OCC3CCCC3)ccc2o1 (racemic) [Example 16, (+/−)-4-[5-(Cyclopentylmethoxy)-1-benzofur-2-yl]-4-oxo-2-[2-(4-oxo-1,2,3-benzotriazin-3(4H)-yl)ethyl]butanoic acid] — 5.1-fold higher, 24 nM
- O=C(CC(CCn1nnc2ccccc2c1=O)C(=O)O)c1cc2cc(OCc3ccc(F)cc3)ccc2o1 (racemic) [Example 22, (+/−)-4-{5-[(4-Fluorobenzyl)oxy]-1-benzofur-2-yl}-4-oxo-2-[2-(4-oxo-1,2,3-benzotriazin-3(4H)-yl)ethyl]butanoic acid] — 1.9-fold lower, 2.5 nM
- O=C(CC(CCn1nnc2ccccc2c1=O)C(=O)O)c1cc2cc(OCc3ccc(Cl)c(Cl)c3)ccc2o1 (racemic) [Example 25, (+/−)-4-{5-[(3,4-Dichlorobenzyl)oxy]-1-benzofur-2-yl}-4-oxo-2-[2-(4-oxo-1,2,3-benzotriazin-3(4H)-yl)ethyl]butanoic acid] — 24-fold lower, 0.2 nM
- O=C(CC(CCn1nnc2ccccc2c1=O)C(=O)O)c1cc2cc(OCc3ccccc3)ccc2o1 (racemic) [Example 28, (+/−)-4-[5-(Benzyloxy)-1-benzofur-2-yl]-4-oxo-2-[2-(4-oxo-1,2,3-benzotriazin-3(4H)-yl)ethyl]butanoic acid] — 1.5-fold lower, 3.1 nM
- NC(=O)c1ccc(COc2ccc3oc(C(=O)CC(CCn4nnc5ccccc5c4=O)C(=O)O)cc3c2)cc1 (racemic) [Example 35, (+/−)-4-{5-[(4-Carbamoylbenzyl)oxy]-1-benzofur-2-yl}-4-oxo-2-[2-(4-oxo-1,2,3-benzotriazin-3(4H)-yl)ethyl]butanoic acid] — 2.4-fold lower, 2 nM
- O=C(CC(CCn1nnc2ccccc2c1=O)C(=O)O)c1cc2cc(OCc3ccc4nonc4c3)ccc2o1 (racemic) [Example 36, (+/−)-4-[5-(2,1,3-Benzoxadiazol-5-ylmethoxy)-1-benzofur-2-yl]-4-oxo-2-[2-(4-oxo-1,2,3-benzotriazin-3(4H)-yl)ethyl]butanoic acid] — 14-fold lower, 0.33 nM
